Measured values reported in patent US20250163057A1, “DCN-1 MODULATING COMPOUNDS AND METHODS OF USE THEREOF” (Cellarity, Inc., priority 2023, published 2025).
Where two headings read alike, the source gives them in different places.

Assays:
[1] = target: DCN1 protein (Homo sapiens (Human), UniProt Q96GG9); assay: Intact Protein MS Analysis with the RapidFire-TOF System (covalent adduct formation); format: binding; conditions: MS Emax; 400 nM DCN1, 3 hours at room temperature
Procedure, shortened: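 Tag-cleaved human DCN1 (400 nM) expressed in E. coli, in 25 mM Tris-HCl, 200 mM NaCl, 1 mM DTT, was incubated with 11 compound concentrations for 3 h at room temperature and quenched with 0.2% formic acid. Intact-protein Q-TOF MS with deconvolution detected the compound adduct mass.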

[2] = test system: Cullin-3 (CUL3) neddylation; assay: AlphaLISA assay for Cullin-3 (CUL3) neddylation in TF 1 cells; format: cell-based; conditions: Homo sapiens, 3 hours treatment
Procedure, shortened: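 Neddylated CUL3 was quantified by AlphaLISA in lysates of TF 1 cells exposed for 3 h to test compound in IMDM without supplements. Percent inhibition set between vehicle and 1 μM DI-1548 positive control; IC50 derived by Hill-equation fitting of dose-response curves.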

[3] = target: DCN1 (DCUND1) protein PONY domain (Homo sapiens (Human), UniProt Q96GG9); assay: TR-FRET assay, DCN1 binding with FAM-labeled probe
Chain of DCN1 (DCUND1) protein PONY domain (Q96GG9 60-248): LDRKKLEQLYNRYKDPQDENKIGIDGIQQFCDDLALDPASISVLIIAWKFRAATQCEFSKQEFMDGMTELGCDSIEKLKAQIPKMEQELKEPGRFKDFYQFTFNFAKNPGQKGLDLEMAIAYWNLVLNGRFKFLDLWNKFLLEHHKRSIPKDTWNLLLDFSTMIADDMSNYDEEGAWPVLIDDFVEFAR
Procedure, shortened: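 TR-FRET ratio (Tb-DCN1 to FAM-probe) read at 1, 5 and 24 hrs after compound addition. Protein: recombinant PONY domain from E. coli, biotinylated and coupled to streptavidin terbium. Either 5 nM DCN1 with 20 nM FAM-probe, or 0.31 nM DCN1 with 100 nM FAM-labelled plus 800 nM unlabelled probe.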

[4] = 24 hr after treatment with compound, read-out: TR FRET IC50 24 hr
[5] = read-out: TR FRET IC50 1 hr, 1 hr after treatment with compound

Chain of DCN1 protein (Q96GG9 whole entry): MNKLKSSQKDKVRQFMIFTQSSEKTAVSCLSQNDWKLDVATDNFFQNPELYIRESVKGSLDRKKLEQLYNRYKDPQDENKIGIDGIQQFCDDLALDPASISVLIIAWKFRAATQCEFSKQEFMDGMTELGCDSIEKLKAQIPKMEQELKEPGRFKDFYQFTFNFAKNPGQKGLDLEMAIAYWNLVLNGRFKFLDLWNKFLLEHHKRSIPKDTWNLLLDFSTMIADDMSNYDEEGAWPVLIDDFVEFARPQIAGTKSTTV

Row | SMILES | % Adduct Formation [1] | IC50 ([2]; TF-1, 3 h) [nM] | IC50 [3, 4] [nM] | IC50 [3, 5] [nM] | IC50 ([3]; TR FRET IC50 1 hr (nM), 1 hr after treatment with compound) [nM] | IC50 [2] [nM]
1 | CCN1C(=O)[C@@H](NC(=O)c2cccc(C(F)(F)F)c2)[C@@H](c2ccc(F)cc2)c2c(C(=O)N3CCN(C4COC4)CC3C#N)nn(-c3ccccc3)c21 (stereo partly drawn) [Compound I-357] | ++ (MS Emax % adduct formation greater than 30.0 and less than or equal to 80.0) | ≤ 100 | ≤ 200 | ≤ 200 | – | –
2 | CCN1C(=O)[C@@H](NC(=O)c2cccc(C(F)(F)F)c2)[C@@H](c2ccc(F)cc2)c2c(C(=O)N(CC#N)CC#N)nn(C3CCOCC3)c21 [Compound I-365] | +++ (MS Emax % adduct formation greater than 80.0 and less than or equal to 100.0) | ≤ 100 | ≤ 200 | ≤ 200 | – | –
3 | CCN1C(=O)[C@@H](NC(=O)c2cccc(C(F)(F)F)c2)[C@@H](c2ccc(F)cc2)c2c(C(=O)N(C)CC#N)nn(C3CCOCC3)c21 [Compound I-366] | +++ (MS Emax % adduct formation greater than 80.0 and less than or equal to 100.0) | ≤ 100 | ≤ 200 | ≤ 200 | – | –
4 | CCN1C(=O)[C@@H](NC(=O)c2cccc(C(F)(F)F)c2)[C@@H](c2ccc(F)cc2)c2c(C(=O)N(C)[C@H](C)C#N)nn(C3CCOCC3)c21 [Compound I-367] | +++ (MS Emax % adduct formation greater than 80.0 and less than or equal to 100.0) | ≤ 100 | ≤ 200 | ≤ 200 | – | –
5 | CCN1C(=O)[C@@H](NC(=O)c2cccc(C(F)(F)F)c2)[C@@H](c2ccc(F)cc2)c2c(C(=O)N(C)[C@@H](C)C#N)nn(C3CCOCC3)c21 [Compound I-368] | +++ (MS Emax % adduct formation greater than 80.0 and less than or equal to 100.0) | ≤ 100 | ≤ 200 | ≤ 200 | – | –
6 | CCN1C(=O)[C@@H](NC(=O)c2cccc(C(F)(F)F)c2)[C@@H](C2CC2)c2c(C(=O)N(CC#N)CC#N)nn(C3CCOCC3)c21 [Compound I-373] | ++ (MS Emax % adduct formation greater than 30.0 and less than or equal to 80.0) | ≤ 100 | ≤ 200 | ≤ 200 | – | –
7 | CCN1C(=O)[C@@H](NC(=O)c2cccc(C(F)(F)F)c2)[C@@H](C2CCC2)c2c(C(=O)N(C)C(C)C#N)nn(C3CCOCC3)c21 (stereo partly drawn) [Compound I-375] | +++ (MS Emax % adduct formation greater than 80.0 and less than or equal to 100.0) | ≤ 100 | ≤ 200 | ≤ 200 | – | –
8 | CCN1C(=O)[C@@H](NC(=O)c2cccc(C(F)(F)F)c2)[C@@H](C2CCCC2)c2c(C(=O)N3[C@H](C#N)C[C@H]4C[C@H]43)nn(C3CCOCC3)c21 [Compound I-376] | +++ (MS Emax % adduct formation greater than 80.0 and less than or equal to 100.0) | ≤ 100 | ≤ 200 | ≤ 200 | – | –
9 | CCN1C(=O)[C@@H](NC(=O)c2cccc(C(F)(F)F)c2)[C@@H](C2CC2)c2c(C(=O)N3CCOC[C@H]3C#N)nn(-c3ccccc3)c21 [Compound I-382] | +++ (MS Emax % adduct formation greater than 80.0 and less than or equal to 100.0) | ≤ 100 | ≤ 200 | – | 200 to 1000 | –
10 | N#C[C@@H]1C[C@H]2C[C@H]2N1C(=O)c1nn(C2CCOCC2)c2c1[C@H](C1CC1)[C@H](NC(=O)c1cccc(C(F)(F)F)c1)C(=O)N2C1CC1 [Compound I-388, N-((4S,5S)-3-((1R,3S,5R)-3-cyano-2-azabicyclo[3.1.0]hexane-2-carbonyl)-4,7-dicyclopropyl-6-oxo-1-(tetrahydro-2H-pyran-4-yl)-4,5,6,7-tetrahydro-1H-pyrazolo[3,4-b]pyridin-5-yl)-3-(trifluoromethyl)benzamide] | ++ (MS Emax % adduct formation greater than 30.0 and less than or equal to 80.0) | ≤ 100 | ≤ 200 | ≤ 200 | – | –
11 | CCN1C(=O)[C@@H](NC(=O)c2cccc(SC(F)(F)F)c2)[C@@H](C2CC2)c2c(C(=O)N3[C@H](C#N)C[C@H]4C[C@H]43)nn(C3CCOCC3)c21 [Compound I-389] | +++ (MS Emax % adduct formation greater than 80.0 and less than or equal to 100.0) | – | ≤ 200 | ≤ 200 | – | ≤ 100
12 | CCN1C(=O)[C@@H](NC(=O)c2cccc(C(F)(F)F)n2)[C@@H](C2CC2)c2c(C(=O)N3[C@H](C#N)C[C@H]4C[C@H]43)nn(C3CCOCC3)c21 [Compound I-390] | +++ (MS Emax % adduct formation greater than 80.0 and less than or equal to 100.0) | – | ≤ 200 | ≤ 200 | – | ≤ 100
